Experimental data from the NIST ThermoML archive (doi:10.1016/j.tca.2014.01.028).
± gives the expanded uncertainty stated by the source.

Tests used:
[1] = Crystal; DTA
[2] = Molar enthalpy of transition or fusion; details: Crystal; DSC

Normal melting temperature [1]: 135.60 ± 0.5 °C | Molar enthalpy of transition or fusion [2]: 32 ± 0.91 kJ/mol
Compound: O=C(c1ccccc1)C(C(=O)c1ccccc1)[C@H](C[N+](=O)[O-])c1ccccc1
